{"source": "patent US20040185016A1", "about": "“Compositions for treatment of hyperpigmentation and methods for making and using such compositions” (priority 2002, published 2004)", "key": {"[1]": {"conditions": "in composition of Example 1; 30 and 90 days", "experimental": "The composition of Example 1 was subjected to a range of temperatures over a period of time from 30 to 90 days to determine the chemical stability of selected ingredients. […] “FT” refers to freeze thaw conditions (−10° to −20° C.) where the product is exposed to freezing conditions for two days and then allowed to that at controlled room temperature (15° to 30° C.) for the next five days."}, "[2]": {"conditions": "0 days", "procedure": "(§1) The composition of Example 3 was subjected to a range of temperatures over a prolonged period of time to determine the chemical stability of selected ingredients.\n(§2) Next, chemical stability of avobenzone was determined using a suitable HPLC assay.\n(§3) Next, the chemical stability of octyl methoxycinnamate was determined using a suitable HPLC assay.\n(§4) Next, the chemical stability of the oxybenzone sunscreen was determined for 30 and 60 days at 6° C., 25° C., 30° C., and 40° C. using a suitable HPLC assay.\n(§5) Next, the chemical stability of the oxybenzone sunscreen at 90 days was determined using a suitable HPLC assay."}, "[3]": {"assay": "chemical stability of selected ingredients in the composition of Example 3 (HPLC assay)", "conditions": "in composition of Example 3", "procedure": "as §1, §2, §3, §4, §5"}}, "note": "Read-outs that look alike come from different tables or passages of the source.", "data": [{"compound": "COc1ccc(C(=O)CC(=O)c2ccc(C(C)(C)C)cc2)cc1", "note": "[avobenzone]", "values": [{"measurement": "ingredient activity after exposure of the formulation to high and low temperatures", "setting": "[1]", "result": "remained active"}, {"measurement": "ingredient content, chemical stability by HPLC", "setting": "[2]", "result": 3.03, "unit": "% W/W"}, {"measurement": "ingredient activity after exposure of the formulation to high and low temperatures", "setting": "[3]; 30 to 90 days", "result": "remained active"}]}, {"compound": "Oc1ccc(O)cc1", "note": "[hydroquinone]", "values": [{"measurement": "ingredient activity after exposure of the formulation to high and low temperatures", "setting": "[1]", "result": "remains active"}, {"measurement": "ingredient content, chemical stability by HPLC", "setting": "[2]", "result": 3.95, "unit": "% W/W"}, {"measurement": "ingredient activity after exposure of the formulation to high and low temperatures", "setting": "[3]; 30 to 90 days", "result": "remained active"}]}, {"compound": "CCCCC(CC)COC(=O)C=Cc1ccc(OC)cc1", "note": "(stereo not drawn) [octyl methoxycinnamate]", "values": [{"measurement": "ingredient content, chemical stability by HPLC", "setting": "[2]", "result": 7.61, "unit": "% W/W"}]}, {"compound": "COc1ccc(C(=O)c2ccccc2)c(O)c1", "note": "[oxybenzone]", "values": [{"measurement": "ingredient activity after exposure of the formulation to high and low temperatures", "setting": "[3]; 30 to 60 days", "result": "remained active"}, {"measurement": "ingredient activity after exposure of the formulation to high and low temperatures", "setting": "[3]; 30 to 90 days", "result": "remained active"}, {"measurement": "ingredient content, chemical stability by HPLC", "setting": "[3]; 30 days, 25°", "result": 5.98, "unit": "% W/W"}, {"measurement": "ingredient content, chemical stability by HPLC", "setting": "[3]; 30 days, 30°", "result": 5.95, "unit": "% W/W"}, {"measurement": "ingredient content, chemical stability by HPLC", "setting": "[3]; 30 days, 40°", "result": 6.04, "unit": "% W/W"}, {"measurement": "ingredient content, chemical stability by HPLC", "setting": "[3]; 60 days, 25°", "result": 6.04, "unit": "% W/W"}, {"measurement": "ingredient content, chemical stability by HPLC", "setting": "[3]; 60 days, 30°", "result": 6.02, "unit": "% W/W"}, {"measurement": "ingredient content, chemical stability by HPLC", "setting": "[3]; 60 days, 40°", "result": 6.07, "unit": "% W/W"}, {"measurement": "ingredient content, chemical stability by HPLC", "setting": "[3]; 90 days, 6°", "result": 6.05, "unit": "% W/W"}, {"measurement": "ingredient content, chemical stability by HPLC", "setting": "[3]; 90 days, 25°", "result": 6.09, "unit": "% W/W"}, {"measurement": "ingredient content, chemical stability by HPLC", "setting": "[3]; 90 days, 30°", "result": 6.07, "unit": "% W/W"}, {"measurement": "ingredient content, chemical stability by HPLC", "setting": "[3]; 90 days, 40°", "result": 6.06, "unit": "% W/W"}, {"measurement": "ingredient content, chemical stability by HPLC", "setting": "[3]; 90 days, FT (freeze thaw)", "result": 6.09, "unit": "% W/W"}, {"measurement": "ingredient content, chemical stability by HPLC", "setting": "[3]; day 0, 25°", "result": 6.07, "unit": "% W/W"}]}]}
